In ChEMBL document CHEMBL5241051, “Phthalimide analogs for antimalarial drug discovery” (RSC Med Chem, 2021):

Experiments:
[1] = tested on: Plasmodium falciparum; experiment: Antiplasmodial activity against Plasmodium falciparum 3D7 assessed as inhibition of parasite growth incubated for 48 hrs by SYBR green I staining based fluorescence assay; assay type: functional, organism-based; settings: 3D7, 48 h
[2] = Inhibition of Plasmodium falciparum plasmepsin IV assessed as substrate cleavage preincubated with enzyme for 5 mins followed by substrate addition and measured immediately by spectrophotometric analysis
[3] = tested on: Plasmodium berghei; experiment: Antimalarial activity against GFP-expressing Plasmodium berghei ANKA infected in mouse assessed as survival rate at 50 mg/kg, sc pre-infected for 2 hrs followed by compound addition; assay type: functional
[4] = tested on: Plasmodium berghei; experiment: Antimalarial activity against GFP-expressing liver stage Plasmodium berghei ANKA sporozoites infected in human HepG2 cells assessed as inhibition of parasite growth incubated for 2 days by imaging analysis; assay type: functional, organism-based; settings: HepG2, 48 h
[5] = Inhibition of Plasmodium falciparum plasmepsin V
[6] = Cytotoxicity against human PBMC cells assessed as inhibition of cell growth incubated for 24 hrs by Celltiter-Glo assay; assay type: toxicity, cell-based
[7] = tested on: Plasmodium falciparum; experiment: Antiplasmodial activity against multidrug resistant Plasmodium falciparum Dd2 infected in erythrocytes (unknown origin) incubated for 72 hrs by SYBR green I staining based fluorescence assay; assay type: functional, organism-based; settings: Dd2, Erythrocyte
[8] = tested on: Plasmodium berghei; experiment: Antimalarial activity against chloroquine resistant Plasmodium berghei NK-65 infected RBC infected in Swiss albino mouse assessed as survival rate at 100 mg/kg, sc pre-infected for 48 hrs followed by compound addition for 4 days in the presence of artemisinin; assay type: functional; settings: time 4 day
[9] = Inhibition of Plasmodium falciparum plasmepsin X
[10] = Inhibition of Plasmodium falciparum plasmepsin II assessed as substrate cleavage preincubated with enzyme for 5 mins followed by substrate addition and measured immediately by spectrophotometric analysis
[11] = tested on: Plasmodium falciparum; experiment: Antiplasmodial activity against chloroquine sensitive Plasmodium falciparum D6 infected in erythrocytes (unknown origin) incubated for 72 hrs by SYBR green I staining based fluorescence assay; assay type: functional, organism-based; settings: D6, Erythrocyte
[12] = Cytotoxicity against human U-937 cells assessed as inhibition of cell growth incubated for 24 hrs by Celltiter-Glo assay; assay type: toxicity, cell-based
[13] = tested on: Plasmodium falciparum; experiment: Antiplasmodial activity against Plasmodium falciparum RKL-9 stage I-V gametocytes assessed as reduction in parasitemia incubated for 72 hrs by giemsa staining based analysis; settings: RKL-9, 72 h
[14] = tested on: Plasmodium falciparum; experiment: Antiplasmodial activity against chloroquine sensitive Plasmodium falciparum 3D7 assessed as reduction in [3H]-hypoxanthine incorporation by liquid scintillation beta counter analysis; assay type: functional, organism-based
[15] = tested on: Plasmodium falciparum; experiment: Antiplasmodial activity against chloroquine resistant Plasmodium falciparum W2 infected in erythrocytes (unknown origin) assessed as inhibition of parasite growth incubated for 90 hrs by SYBR green staining based fluorescence assay; assay type: functional, organism-based; settings: W2, Erythrocyte
[16] = tested on: Plasmodium falciparum; experiment: Antiplasmodial activity against chloroquine sensitive Plasmodium falciparum 3D7 infected in erythrocytes (unknown origin) assessed as inhibition of parasite growth incubated for 90 hrs by SYBR green staining based fluorescence assay; assay type: functional, organism-based; settings: 3D7, Erythrocyte
[17] = tested on: Plasmodium falciparum; experiment: Antiplasmodial activity against chloroquine resistant Plasmodium falciparum 7GB assessed as inhibition of parasite growth incubated for 48 hrs by SYBR green I staining based fluorescence assay; assay type: functional, organism-based
[18] = tested on: Plasmodium falciparum; experiment: Antiplasmodial activity against Plasmodium falciparum 3D7 infected in erythrocytes (unknown origin) assessed as inhibition of parasite growth by SYBR green staining based fluorescence assay; assay type: functional, organism-based; settings: 3D7, Erythrocyte
[19] = tested on: Plasmodium falciparum; experiment: Inhibition of Plasmodium falciparum 3D7 cytochrome bc1 oxidoreductase using decylubiquinol as substrate at 70 uM relative to control
[20] = Selectivity index, ratio of CC50 for cytotoxicity against human HepG2 cells to IC50 for […] activity against Plasmodium falciparum 3D7; assay type: toxicity, cell-based; settings: read-out: Ratio CC50/IC50
[21] = Cytotoxicity against human HepG2 cells assessed as reduction in cell viability incubated for 24 hrs by MTT assay; assay type: toxicity, cell-based

CC(C)[C@@H](C(=O)N[C@H](Cc1ccccc1)[C@@H](O)CN1CCN(Cc2ccc(Br)cc2)CC1)N1C(=O)c2ccccc2C1=O
IC50 [1]: 1250 nM

CC(C)[C@H](C(=O)N[C@H](Cc1ccccc1)[C@@H](O)CN1CCN(C[C@H](O)[C@@H](Cc2ccccc2)NC(=O)[C@@H](C(C)C)N2C(=O)c3ccccc3C2=O)CC1)N1C(=O)c2ccccc2C1=O
Ki [2]: 3300 nM

Cc1ccc2c(c1)C(=O)N(C(Cc1ccccc1)C(=O)NC(Cc1ccccc1)C(O)CN1CCN(CC(O)C(Cc3ccccc3)NC(=O)C(Cc3ccccc3)N3C(=O)c4ccc(C)cc4C3=O)CC1)C2=O (stereo not drawn)
Survival [3]: 20 days | IC50 [4]: 2100 nM | Ki [5]: 530 nM | CC50 at 24 h [6]: 11100 nM | IC50 [7]: 600 nM | Ki [2]: 252 nM | Survival [8]: 15 days | Ki [9]: 3830 nM | Ki [10]: 112 nM | IC50 [11]: 910 nM | CC50 at 24 h [12]: 26400 nM | IC50 [13]: 1680 nM | IC50 [14]: 1310 nM

CC(C)CC(c1nc2ccccc2n1Cc1cnnn1-c1ccccc1)N1C(=O)c2ccccc2C1=O (stereo not drawn)
IC50 [15]: 700 nM | IC50 [16]: 900 nM

CC(C)(C)OC(=O)N[C@H](Cc1ccccc1)[C@@H](O)CN1CCC(N2CCCCC2)CC1
IC50 [1]: 1160 nM | IC50 [17]: 2990 nM

CC[C@H](C)[C@@H](C(=O)N[C@H](Cc1ccccc1)[C@@H](O)CN1CCN(C[C@H](O)[C@@H](Cc2ccccc2)NC(=O)[C@H]([C@@H](C)CC)N2C(=O)c3ccccc3C2=O)CC1)N1C(=O)c2ccccc2C1=O
Ki [10]: 990 nM

COc1ccc(N2C(=O)c3cccc(N)c3C2=O)cc1
IC50 [18]: 4200 nM | inhibition [19]: 74% | selectivity ratio [20]: > 36 | CC50 at 24 h [21]: > 250000 nM

CC(C)CC(c1nc2ccccc2n1Cc1cnn[nH]1)N1C(=O)c2ccccc2C1=O (stereo not drawn)
IC50 [15]: 900 nM | IC50 [16]: 700 nM

COc1ccc(N2C(=O)c3cccc(NCc4ccccc4)c3C2=O)cc1
IC50 [18]: 6800 nM | selectivity ratio [20]: > 59 | CC50 at 24 h [21]: > 250000 nM

O=C(N[C@H](Cc1ccccc1)[C@@H](O)CN1CCN(C[C@H](O)[C@@H](Cc2ccccc2)NC(=O)[C@@H](Cc2ccccc2)N2C(=O)c3ccccc3C2=O)CC1)[C@@H](Cc1ccccc1)N1C(=O)c2ccccc2C1=O
IC50 [1]: 1300 nM | IC50 [17]: 2990 nM

O=C(N[C@H](Cc1ccccc1)[C@@H](O)CN1CCN(Cc2ccc(F)cc2)CC1)[C@@H](Cc1ccccc1)N1C(=O)c2ccccc2C1=O
IC50 [1]: 1330 nM | IC50 [17]: 2990 nM
